Results from patent US20110060036A1, “Branched Multifunctional Nanoparticle Conjugates And Their Use” (EMORY UNIVERSITY, priority 2008, published 2011).

Assays:
MDA-MB-231 tumor = assay: Therapeutic efficacy test in MDA-MB-231 orthotopic tumor model; type: in vivo, athymic nude mice; settings: for therapeutic outcome in small tumors: tumors about 30 mm^3, i.v. weekly; for therapeutic outcome in small tumors / antitumor effect in large tumors: TX equivalent 30 mg/Kg; for antitumor effect in large tumors: tumors about 120 mm^3, i.v., 4 weekly injections
Experimental: The MDA-MB-231 tumor model was used for testing the in-vivo therapeutic efficacy of these polymer-drug conjugates. MDA-MB-231 tumors were developed in the mammary fat pad of athymic nude mice as discussed above. When the average sizes of the tumor reached 100-120 or ˜30 mm^3, mice were randomly sorted into 4 groups (6 mice each group). A paclitaxel equivalent of 30 mg/kg of free drug and polymer drug conjugates were administered i.v. and the injections were performed weekly. Tumor sizes were measured in two dimensions with calipers and volume was calculated using the following formula: Tumor volume=(length×width^2)/2. The end-point size of this tumor model was set at 1,500 mm^3, 20% weight loss or severe ulceration (more than 20% of tumor areas).
Following the in-vivo blood circulation and tumor targeting tests, the anti-tumor activity of these nanoparticles was evaluated in comparison with free TX using the MDA-MB-231 orthotopic tumor model with two serials trials of tumor sizes of about 120 and 30 mm^3.

tumor cell cultures = settings: cited from earlier work
[1] = room temperature (25 degrees C.); cited from earlier work

PG-2′-O— succinyl-paclitaxel [GT]
therapeutic outcome in small tumors (MDA-MB-231 tumor): delayed response to the treatment
antitumor effect in large tumors (MDA-MB-231 tumor): significant antitumor effects

dynemicin
IC50 for inhibition of growth of tumor cell cultures (tumor cell cultures): low picomolar range

COc1cccc2c1C(=O)c1c(O)c3c(c(O)c1C2=O)C[C@@](O)(C(=O)CO)C[C@@H]3O[C@H]1C[C@H](N)[C@H](O)[C@H](C)O1 [doxorubicin]
solubility in water [1]: 1 milligram/ml

calicheamicin
IC50 for inhibition of growth of tumor cell cultures (tumor cell cultures): low picomolar range

CC(=O)O[C@H]1C(=O)[C@@]2(C)[C@H]([C@H](OC(=O)c3ccccc3)[C@]3(O)C[C@H](OC(=O)[C@H](O)[C@@H](NC(=O)c4ccccc4)c4ccccc4)C(C)=C1C3(C)C)[C@]1(OC(C)=O)CO[C@@H]1C[C@@H]2O [TX, paclitaxel]
histological analysis of tumor sections: Ki67 expression level (MDA-MB-231 tumor; large tumors, TX equivalent 30 mg/Kg weekly): little difference compared to the control
therapeutic outcome in small tumors (MDA-MB-231 tumor): delayed response to the treatment
antitumor effect in large tumors (MDA-MB-231 tumor): little effect on tumor inhibition

esperamicin
IC50 for inhibition of growth of tumor cell cultures (tumor cell cultures): low picomolar range

CC(C)CCC[C@@H](C)[C@H]1CC[C@H]2[C@@H]3CC=C4C[C@@H](O)CC[C@]4(C)[C@H]3CC[C@]12C [cholesterol]
solubility in water [1]: 10 nanograms/ml
